Test results reported in ChEMBL document CHEMBL1177785, “Chemoselective regulation of TREK2 channel: activation by sulfonate chalcones and inhibition by sulfonamide chalcones” (Bioorg Med Chem Lett, 2010).

Columns and labels:
[1] = target: T1, Potassium channel subfamily K member 10 (Rattus norvegicus, UniProt Q9JIS4); assay: Inhibition of rat TREK2 channel -mediated current expressed in HEK293 at 60 mV holding potential by patch clamp method; type: cell-based
T1 sequence (Q9JIS4 whole entry): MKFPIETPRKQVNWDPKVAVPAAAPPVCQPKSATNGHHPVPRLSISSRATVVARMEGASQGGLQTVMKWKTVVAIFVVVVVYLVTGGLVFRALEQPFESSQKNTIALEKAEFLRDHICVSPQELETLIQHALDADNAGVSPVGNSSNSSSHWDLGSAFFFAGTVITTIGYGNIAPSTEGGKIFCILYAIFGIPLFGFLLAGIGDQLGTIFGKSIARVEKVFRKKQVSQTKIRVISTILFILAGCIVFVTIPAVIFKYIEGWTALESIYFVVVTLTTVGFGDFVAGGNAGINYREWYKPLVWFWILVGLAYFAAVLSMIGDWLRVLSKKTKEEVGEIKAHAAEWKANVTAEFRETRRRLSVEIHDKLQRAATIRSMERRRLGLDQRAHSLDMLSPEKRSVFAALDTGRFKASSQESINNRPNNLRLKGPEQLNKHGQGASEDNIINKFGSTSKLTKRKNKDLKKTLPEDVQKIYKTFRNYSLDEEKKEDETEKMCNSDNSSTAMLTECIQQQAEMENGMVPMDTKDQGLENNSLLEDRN

[2] = target: T1, Potassium channel subfamily K member 10; assay: Activation of rat TREK2 channel -mediated current expressed in HEK293 at 60 mV holding potential by patch clamp method; type: cell-based

| SMILES | IC50 [1] | EC50 [2] |
| --- | --- | --- |
| Cc1ccc(S(=O)(=O)Nc2ccc(C(=O)/C=C/c3ccc(O)cc3)cc2)cc1 | 62 µM |  |
| COc1ccc(/C=C/C(=O)c2ccc(NS(=O)(=O)c3ccc(C)cc3)cc2)cc1 | 100 µM |  |
| Cc1ccc(S(=O)(=O)Nc2ccc(C(=O)/C=C/c3ccccc3)cc2)cc1 | > 100 µM |  |
| Cc1ccc(S(=O)(=O)Oc2ccc(C(=O)/C=C/c3ccc(O)cc3)cc2)cc1 |  | 167 µM |
